Assay results published in PubChem BioAssay (NCI).
Values joined by “and” are separate entries in the source; they are usually repeats but may differ in a detail not shown here. Identical values can stand only once.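 Compound exposure: 48 hours, 5 concentrations, 96-well plates. At the GI50, growth is halved. TGI marks complete inhibition of growth.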

Columns and labels:
Experiment in all cases: inhibition of tumour cell growth, NCI panel, 48 h
SNB-19 CNS = system: SNB-19 CNS
EKVX NSCLC = system: EKVX NSCLC
SF-268 CNS = system: SF-268 CNS
A498 renal = system: A498 renal
SK-MEL-2 melanoma = system: SK-MEL-2 melanoma
SNB-78 CNS = system: SNB-78 CNS
DLD-1 colon = system: DLD-1 colon
DMS 273 small cell lung = system: DMS 273 small cell lung

Compound | GI50 (SNB-19 CNS) | TGI (SNB-19 CNS) | GI50 (EKVX NSCLC) | TGI (EKVX NSCLC) | GI50 (SF-268 CNS) | TGI (SF-268 CNS) | GI50 (A498 renal) | TGI (A498 renal) | GI50 (SK-MEL-2 melanoma) | TGI (SK-MEL-2 melanoma) | TGI (SNB-78 CNS) [µM] | TGI (DLD-1 colon) [µM] | TGI (DMS 273 small cell lung) [µM]
CN(CCOc1ccc(C#N)cc1)CCOc1ccc(C#N)cc1 | > 100 µM | > 100 µM | 63.2 µM | > 100 µM | > 100 µM | > 100 µM | 14.8 µM | > 100 µM |  |  |  |  | 
COc1ccc2c(c1)OC(N(C(C)=O)C(C)=O)=C(C#N)C2c1ccc(F)cc1 (stereo not given) | 2.91 µM | > 100 µM | 6.37 µM | > 100 µM | 9.47 µM | > 100 µM | 2.43 µM | > 100 µM | 1.08 µM | > 100 µM |  |  | 
Nc1nc2c(c(=O)[nH]1)CN(c1ccc(S(N)(=O)=O)cc1)CN2 |  | > 100 µM |  | > 100 µM |  | > 100 µM |  | > 100 µM |  | > 100 µM |  |  | 
COc1ccc(-c2cncn2-c2ccc(OC)cc2)cc1 |  |  | 4.08 µM | 27.1 µM | 21.7 µM | 66.2 µM | 16.3 µM | 34.3 µM | 17.9 µM | 42.9 µM |  |  | 
COc1ccc2c3c(c(=O)n(C)c2c1OC)C=CC(C)(C)O3 |  | > 100 µM |  | > 100 µM |  | > 100 µM |  | 71.7 µM |  | > 100 µM |  |  | 
Fc1ccc2[nH]c3c(NCCCN4CCOCC4)ncnc3c2c1 | > 100 µM | > 100 µM |  |  | 88.2 µM | > 100 µM | 28.1 µM | > 100 µM | 52 µM | > 100 µM |  |  | 
CCCCn1cnc2c(SC)ncnc21 |  | > 100 µM |  | > 100 µM |  | > 100 µM |  | > 100 µM |  | > 100 µM |  |  | 
OCc1ccc(-c2nn(Cc3ccccc3)c3ccccc23)o1 | 21.5 µM and 13.7 µM | 96.7 µM and > 52 µM | 18.9 µM and 22.9 µM | 72.7 µM and 58.9 µM | 18.6 µM and 19 µM | 65.8 µM and 51.1 µM | 0.092 µM and 0.0445 µM | 0.25 µM and 0.144 µM | 16.6 µM and 30.7 µM | 32.6 µM and > 100 µM |  |  | 
COc1cc[nH]c1/C=C1\C(=O)Nc2ccc(F)c(I)c21 | > 25 µM | > 25 µM |  |  | > 25 µM | > 25 µM | > 25 µM | > 25 µM | > 25 µM | > 25 µM |  |  | 
Clc1nc(Cl)c2c(ncn2C/C=C\Cn2cnc3c(Cl)nc(Cl)nc32)n1 | 1.66 µM | 3.16 µM | 1.85 µM | 3.5 µM | 1.74 µM | 5.49 µM | 12.4 µM | 25.6 µM | 1.41 µM | 2.73 µM |  |  | 
Cn1ccnc1C(=O)/C=C/c1ccc(CC(=O)Nc2ccccc2)cc1 | 1.9 µM | 11.9 µM | 6.28 µM | > 25 µM | 3.72 µM | 13.9 µM | 6.08 µM | 14.5 µM | 5.06 µM | 13.3 µM |  |  | 
Nc1cc(N)c(N)cc1N | 3.42 µM | 14.3 µM | 2.7 µM | 8.02 µM | 3.06 µM | 12.2 µM | 1.6 µM | 4.67 µM |  |  |  |  | 
Fc1cccc(COc2ccc(Nc3ncnc4cc(-c5ccc[nH]5)sc34)cc2Cl)c1 | 2.22 µM | > 25 µM | 0.323 µM | 3.75 µM | 1.46 µM | > 14.7 µM | 2.27 µM | > 17.7 µM | 6.77 µM | > 25 µM |  |  | 
COc1ccc(-c2cn(-c3ccccc3)c(-c3ccccc3)n2)cc1OC | 7.5 µM | 21.1 µM | 12.1 µM | 29.1 µM | 3.35 µM | 13.5 µM | 18.7 µM | 34.8 µM | 7.06 µM | 22.5 µM |  |  | 
CC(C)(C)c1ccc(S(=O)(=O)N[C@H]2CC[C@H]3[C@@H]4CCc5cc(OS(=O)(=O)O)ccc5[C@H]4CC[C@]23C)cc1 | 3.49 µM | 13.8 µM |  |  | 3.14 µM | 11.5 µM | 1.5 µM | 3.04 µM | 2.46 µM | 5.86 µM |  |  | 
CCOC(=O)NN1C(=O)C(=P(c2ccccc2)(c2ccccc2)c2ccccc2)C(C(=O)OCC)=C1C |  | > 100 µM |  | > 100 µM |  | > 100 µM |  | > 100 µM |  | > 100 µM | > 100 | > 100 | > 100
C=C(C)C(=O)O[C@H]1[C@H]2[C@H](OC(=O)[C@H]2C)[C@H](O)[C@@H](C)[C@@H]2C=CC(=O)[C@]21C |  | 18.6 µM |  | 14.8 µM |  | 12.6 µM |  | 6.56 µM |  | 18.4 µM |  |  | 
O=C(CCl)N1c2ccccc2Sc2c1ccc1ccccc21 | 4.37 µM | 15.1 µM | 12.5 µM | 25.8 µM | 1.88 µM | 3.47 µM | 12.9 µM | 25.9 µM | 17.4 µM | 32.9 µM |  |  | 
CO/N=C(\C)c1ccc(Nc2cc(-c3ccccc3)nc3c(O)cccc23)cc1 |  |  | 15.9 µM | 41.7 µM |  |  | 21.4 µM | 41.6 µM | 28 µM | > 100 µM |  |  | 
CC(=O)OCC1OC(n2ccc(=O)[nH]c2=O)C(OC(C)=O)C1OC(C)=O (stereo not given) | > 100 µM | > 100 µM | > 100 µM | > 100 µM | > 100 µM | > 100 µM | > 100 µM | > 100 µM | > 100 µM | > 100 µM |  |  | 
CC(C)NC(=O)OCCS(=O)c1c(Cl)c(Cl)nn1C (stereo not given) |  | > 100 µM |  | > 100 µM |  | > 100 µM |  | > 100 µM |  | > 100 µM |  |  | 
C[C@H]1[C@H](C)CC[C@]2(C(=O)O)CC[C@]3(C)C(=CC[C@@H]4[C@@]5(C)C/C(=C/c6cccnc6)[C@H](O)C(C)(C)[C@@H]5CC[C@]43C)[C@H]12 | 20.5 µM | > 100 µM | 13.3 µM | 87.6 µM | 24.3 µM | > 100 µM | > 100 µM | > 100 µM | 13.9 µM | 44.4 µM |  |  | 
COc1cc(Nc2nc(N[C@H]3CCCC[C@@H]3N)nc3cc[nH]c(=O)c23)cc(OC)c1 | 3.01 µM | 16.7 µM | 1.08 µM | 12.2 µM | 2.17 µM | 17.7 µM | 1.01 µM | 10.1 µM |  |  |  |  | 
Clc1nc(Cl)c2ncn(Cc3ccc(COc4cccc(OCc5ccc(Cn6cnc7c(Cl)nc(Cl)nc76)cc5)c4)cc3)c2n1 | > 100 µM | > 100 µM | 91.4 µM | > 100 µM | > 100 µM | > 100 µM | 39.2 µM | > 100 µM | 28.2 µM | > 100 µM |  |  | 
